Measured values published in patent publication US20050032873A1, “3-Amino chroman and 2-amino tetralin derivatives” (Wyeth, priority 2003, published 2005).
Like-named read-outs stand apart in the source and are kept apart here.

How the values were obtained:
serotonin transporter = biological target: T1, serotonin transporter (Rattus norvegicus, UniProt P31652); test: 5-HT transporter affinity: displacement of 3H-paroxetine from male rat cortical membranes; assay type: binding; conditions: displacement of 3H-paroxetine; male rat cortical membranes; read-out: 5-HT Transporter Affinity Ki
T1 construct: displace ^3H-paroxetine from male rat cortical membranes; from tissue; host or cells: male rat cortical membranes
T1 sequence (P31652 whole entry): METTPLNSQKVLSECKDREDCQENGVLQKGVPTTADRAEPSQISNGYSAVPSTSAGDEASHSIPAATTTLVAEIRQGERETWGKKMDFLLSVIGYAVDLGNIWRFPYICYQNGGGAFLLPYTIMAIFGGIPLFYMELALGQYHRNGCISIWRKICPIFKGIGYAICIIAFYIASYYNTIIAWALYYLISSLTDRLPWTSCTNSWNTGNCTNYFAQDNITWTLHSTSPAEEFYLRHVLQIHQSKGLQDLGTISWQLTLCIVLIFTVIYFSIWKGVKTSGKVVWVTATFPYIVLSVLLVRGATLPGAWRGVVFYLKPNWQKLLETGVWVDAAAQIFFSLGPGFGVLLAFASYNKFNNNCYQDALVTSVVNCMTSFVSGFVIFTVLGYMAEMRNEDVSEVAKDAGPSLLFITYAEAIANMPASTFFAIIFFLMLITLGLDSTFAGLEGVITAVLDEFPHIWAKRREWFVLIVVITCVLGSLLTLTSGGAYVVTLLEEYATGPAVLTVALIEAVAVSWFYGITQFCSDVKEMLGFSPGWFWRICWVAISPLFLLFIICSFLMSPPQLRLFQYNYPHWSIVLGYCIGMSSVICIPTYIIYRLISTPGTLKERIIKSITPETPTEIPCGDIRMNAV

5-HT1A receptor [1] = biological target: T2, 5-HT1A receptor (Homo sapiens, UniProt P08908); test: cAMP accumulation assay, 5-HT1A function; assay type: cell-based; conditions: for IC50: cells marked IC50 (antagonist), read-out: 5-HT1A Function cAMP IC50; for Emax / 5-HT1A Function cAMP (Emax): in brackets after EC50 or IC50; for Emax: read-out: 5-HT1A Function cAMP (Emax); for EC50: cells marked EC50 (agonist)
T2 sequence (P08908 1-422): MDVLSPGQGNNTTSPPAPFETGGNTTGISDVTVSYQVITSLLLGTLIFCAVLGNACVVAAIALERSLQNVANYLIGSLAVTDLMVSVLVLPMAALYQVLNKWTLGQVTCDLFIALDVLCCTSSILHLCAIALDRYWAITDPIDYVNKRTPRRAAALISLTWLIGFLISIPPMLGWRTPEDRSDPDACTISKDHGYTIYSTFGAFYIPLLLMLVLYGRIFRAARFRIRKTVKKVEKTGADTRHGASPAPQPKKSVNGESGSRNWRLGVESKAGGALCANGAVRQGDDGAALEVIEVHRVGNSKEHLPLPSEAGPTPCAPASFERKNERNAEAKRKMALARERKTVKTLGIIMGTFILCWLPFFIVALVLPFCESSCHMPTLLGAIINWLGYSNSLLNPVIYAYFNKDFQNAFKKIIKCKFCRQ
Text: The agonist or antagonist activity at 5-HT1A receptors was established by using two different assays. […] Agonists produce an increase in binding whereas antagonists produce no increase but rather reverse the effects of the standard agonist 8-OH-DPAT. The test compound's maximum stimulatory effect is represented as the Emax, while its potency is defined by the EC50. The test compound's maximum inhibitory effect is represented as the Imax, while its potency is defined by the IC50. The second assay measured cAMP accumulation upon binding of the ligand to the 5-HT1A receptor. […] The test compound's maximum stimulatory or inhibitory effect is represented as the Emax while its potency is defined by either IC50 for an antagonist or EC50 for an agonist. [^3H]-8-OH-DPAT was used to determine maximum agonist or antagonist response in both functional assays.

[2] = biological target: T3, cloned human 5-HT1A receptors (Homo sapiens, UniProt P08908); test: 35S-GTPγS binding assay, 5-HT1A function; assay type: biochemical; conditions: for IC50: antagonist potency, reversal of 8-OH-DPAT, read-out: 5-HT1A Function GTPγS IC50; for EC50: agonist potency
T3 construct: expressed in transfected cells
T3 sequence (P08908 1-422): T2 sequence (P08908 1-422)

5-HT1A receptor [3] = biological target: T2, 5-HT1A receptor; test: 5-HT1A receptor affinity: displacement of [3H] 8-OH-DPAT; assay type: binding; design: expressed in transfected cells; conditions: displacement of [3H] 8-OH-DPAT; CHO cells stably transfected with human 5-HT1A receptors; read-out: 5-HT1A Receptor Affinity Ki
[4] = maximum inhibitory effect, in brackets after IC50, read-out: 5-HT1A Function GTPγS (Imax)
[5] = maximum stimulatory effect, in brackets after EC50, read-out: 5-HT1A Function GTPγS (Emax)
[6] = maximum inhibitory effect, in brackets after IC50

Structure (SMILES) | Ki (serotonin transporter) [nM] | IC50 (5-HT1A receptor [1]) [nM] | Emax (5-HT1A receptor [1]) [%] | IC50 [2] [nM] | Emax [2, 4] [%] | Ki (5-HT1A receptor [3]) [nM] | EC50 (5-HT1A receptor [1]) [nM] | EC50 [2] [nM] | Emax [2, 5] [%] | 5-HT1A Function cAMP (Emax) (5-HT1A receptor [1]) [%] | 5-HT1A Function GTPγS (Imax) [2, 6] [%]
CN(C)C(=O)c1ccc(F)c2c1CC(N(CCCc1c[nH]c3ccc(F)cc13)C1CCC1)CO2 (centres unmarked) [Compound 73, 3-{cyclobutyl[3-(5-fluoro-1H-indol-3-yl)propyl]amino}-8-fluoro-N,N-dimethylchromane-5-carboxamide] | 28.8 | 155 | 0 | 5730 | 40 | 372 |  |  |  |  | 
CCCN(CCCc1c[nH]c2ccccc12)C1CCc2cccc(OC)c2C1 (centres unmarked) [Compound 50, N-[3-(1H-indol-3-yl)propyl]-8-methoxy-N-propyl-1,2,3,4-tetrahydronaphthalen-2-amine] | 14 |  | 98 |  |  | 2.13 | 2.52 | 4 | 90 |  | 
NC(=O)c1ccc(F)c2c1CC(N(CCCc1c[nH]c3ccc(Cl)cc13)CC1CC1)CO2 (centres unmarked) [Compound 118, 3-[[3-(5-chloro-1H-indol-3-yl)propyl](cyclopropylmethyl)amino]-8-fluorochromane-5-carboxamide] | 41.4 | 168 | 0 | 134 | 69 | 1.49 |  |  |  |  | 
NC(=O)c1ccc(F)c2c1CC(N(CCCc1c[nH]c3cc(F)ccc13)CC1CC1)CO2 (centres unmarked) [Compound 52a, 3-{(cyclopropylmethyl)[3-(6-fluoro-1H-indol-3-yl)propyl]amino}-8-fluorochromane-5-carboxamide] | 163 | 118 | 0 | 983 | 90 | 2.37 |  |  |  |  | 
CCCN(CCCc1c[nH]c2ccc(F)cc12)C1CCc2c(F)ccc(OC)c2C1 (single isomer, unassigned; (+)) [Compound 51a, (+)-5-fluoro-N-[3-(5-fluoro-1H-indol-3-yl)propyl]-8-methoxy-N-propyl-1,2,3,4-tetrahydro-2-naphthalenamine] | 1.15 |  |  |  |  | 1.71 | 16.5 | 13 | 69 | 100 | 
CCCN(CCCCc1c[nH]c2ccc(F)cc12)C1COc2c(F)ccc(C(N)=O)c2C1 (centres unmarked) [Compound 81, 8-fluoro-3-[[4-(5-fluoro-1H-indol-3-yl)butyl](propyl)amino]chromane-5-carboxamide] | 6.15 | 125 | 0 | 775 | 100 | 4.64 |  |  |  |  | 
CCCN(C(C)CCc1c[nH]c2ccc(C#N)cc12)C1COc2c(F)ccc(C(N)=O)c2C1 (single isomer, unassigned) [Compound 13b, 3-[[3-(5-cyano-1H-indol-3-yl)-1-methylpropyl](propyl)amino]-8-fluoro-3,4-dihydro-2H-chromene-5-carboxamide] | 37 |  |  |  |  | 152 | 139 | 1470 | 56.5 | 68 | 
O=C(NCC1CC1)c1cccc2c1CC(N(CCCc1c[nH]c3c(F)cc(F)cc13)C1CCC1)CO2 (centres unmarked) [Compound 144, 3-{cyclobutyl[3-(5,7-difluoro-1H-indol-3-yl)propyl]amino}-N-(cyclopropylmethyl)chromane-5-carboxamide] | 5.5 |  | 100 |  |  | 169 | 4990 | 7600 | 73 |  | 
CCCN(CCCCc1coc2c(OC)cccc12)C1COc2c(F)ccc(C(N)=O)c2C1 (centres unmarked) [Compound 169, 8-fluoro-3-[[4-(7-methoxy-1-benzofuran-3-yl)butyl](propyl)amino]chromane-5-carboxamide] | 528 | 11.3 | 0 | 265 | 100 | 1.48 |  |  |  |  | 
COc1cccc2c(CCN(CC3CC3)C3COc4c(F)ccc(C(N)=O)c4C3)coc12 (centres unmarked) [Compound 160, 3-{(cyclopropylmethyl)[2-(7-methoxy-1-benzofuran-3-yl)ethyl]amino}-8-fluorochromane-5-carboxamide] | 127 | 948 | 0 |  |  | 33.8 |  | 1020 | 51 |  | 
NC(=O)c1ccc(F)c2c1CC(N(CC1CCc3[nH]c4ccc(F)cc4c3C1)C1CCC1)CO2 (single isomer, unassigned; (-)) [Compound 174d, (−)-3-{cyclobutyl[(6-fluoro-2,3,4,9-tetrahydro-1H-carbazol-3-yl)methyl]amino}-8-fluorochromane-5-carboxamide] | 322 | 304 |  | 4750 |  | 73.3 |  |  |  | 0 | 100
NC(=O)c1ccc(F)c2c1CC(N(CCC(=O)c1c[nH]c3ccc(F)cc13)C1CCC1)CO2 (centres unmarked) [Compound 8, 3-{cyclobutyl[3-(5-fluoro-1H-indol-3-yl)-3-oxopropyl]amino}-8-fluorochromane-5-carboxamide] | 259 | 478 | 0 | 1380 | 100 | 103 |  |  |  |  | 
CCCN(CCCc1c[nH]c2ccc(F)cc12)C1COc2c(F)ccc(C(N)=O)c2C1 (single isomer, unassigned; (-)) [Compound 2a, (−)-8-fluoro-3-[[3-(5-fluoro-1H-indol-3-yl)propyl](propyl)amino]-3,4-dihydro-2H-chromene-5-carboxamide] | 8.5 |  | 77.5 | 405 | 77.4 | 1.48 | 18.5 |  |  |  | 
CCCN(C(C)CCc1c[nH]c2ccc(C#N)cc12)C1COc2c(F)ccc(C(N)=O)c2C1 (single isomer, unassigned) [Compound 13a, 3-[[3-(5-cyano-1H-indol-3-yl)-1-methylpropyl](propyl)amino]-8-fluoro-3,4-dihydro-2H-chromene-5-carboxamide] | 23.5 | 76.6 |  | 534 | 100 | 24.3 |  |  |  | 0 | 
NC(=O)c1ccc(F)c2c1CC(N(CCCCc1c[nH]c3ccc(F)cc13)C1CCC1)CO2 (centres unmarked) [Compound 83, 3-{cyclobutyl[4-(5-fluoro-1H-indol-3-yl)butyl]amino}-8-fluorochromane-5-carboxamide] | 14.6 | 23.6 | 0 | 351 | 100 | 4.8 |  |  |  |  | 
CCCN(CCCc1c[nH]c2ccc(Cl)cc12)C1COc2c(F)ccc(C(N)=O)c2C1 (centres unmarked) [Compound 116, 3-[[3-(5-chloro-1H-indol-3-yl)propyl](propyl)amino]-8-fluorochromane-5-carboxamide] | 151 |  | 80 | 843 | 45 | 1.45 | 7.82 | 61.2 | 50 |  | 
CC(CCc1c[nH]c2c(F)cc(F)cc12)N(CC1CC1)C1COc2c(F)ccc(C(N)=O)c2C1 (single isomer, unassigned) [Compound 154c, 3-{(cyclopropylmethyl)[3-(5,7-difluoro-1H-indol-3-yl)-1-methylpropyl]amino}-8-fluorochromane-5-carboxamide] | 67.5 | 3090 | 0 | 1990 |  | 24.8 |  |  |  |  | 100
CCCN(CCc1c[nH]c2ccc(F)cc12)C1COc2cccc(OC)c2C1 (centres unmarked) [Compound 29, N-[2-(5-fluoro-1H-indol-3-yl)ethyl]-5-methoxy-N-propylchroman-3-amine] | 27 |  | 99 |  |  | 7.32 | 77.1 | 205 | 70 |  | 
CCN(CCCCn1ccc2c(F)cccc21)C1COc2c(F)ccc(C(N)=O)c2C1 (centres unmarked) [Compound 201, 3-{Ethyl[4-(4-fluoro-1H-indol-1-yl)butyl]amino}-8-fluorochromane-5-carboxamide] | 95 |  | 92 |  |  | 42.7 | 210 |  |  |  | 
CCN(CCCCn1ccc2ccc(F)cc21)C1COc2c(F)ccc(C(N)=O)c2C1 (centres unmarked) [Compound 193, 3-{Ethyl[4-(6-fluoro-1H-indol-1-yl)butyl]amino}-8-fluorochromane-5-carboxamide] | 15.6 |  | 89 |  |  | 21.6 | 117 |  |  |  | 
CC(Cc1c[nH]c2ccc(F)cc12)CN(CC1CC1)[C@H]1COc2c(F)ccc(C(N)=O)c2C1 (single isomer, unassigned) [Compound 155b] | 144 | 846 |  |  |  | 128 |  |  |  | 0 | 
